Patent US20150307520A1, “NOVEL HETEROARYL AND HETEROCYCLE COMPOUNDS, COMPOSITIONS AND METHODS THEREOF” (HUTCHISON MEDIPHARMA LIMITED, priority 2012, published 2015)

Legend:
Type in all cases: biochemical
[1] = target: p110β/p85α (Homo sapiens, UniProt P42338); test: Transcreener KINASE Assay, kinase inhibition of p110β/p85α; conditions: for PI3Kβ IH % @ 1 uM: 1 uM test compound; for IC50: read-out: PI3Kβ IC50
Experimental: (§1) PI3K kinases including p110α/p85α, p110δ/p85α and p110γ are purchased from Invitrogen, and p110β/p85α is from Millipore.
(§2) Primary screening data and IC50 values are measured using Transcreener™ KINASE Assay (Bellbrook, Catalog #3003-10K). […] It is a universal, homogenous, high throughput screening (HTS) technology using a far-red, competitive fluorescence polarization immunoassay based on the detection of ADP to monitor the activity of enzymes that catalyze group transfer reactions. Briefly, the Transcreener KINASE Assay is designed as a simple two-part, endpoint assay.
(§3) In the first step, the 25 ul kinase reaction is performed by preparing a reaction mixture containing 5 ul test compound (2% DMSO final concentration), 10 ul kinase, buffer (50 mM HEPES, 100 mM NaCl, 1 mM EGTA, 0.03% CHAPS, 3 mM MgCl2, and freshly supplemented 1 mM DTT), and 10 ul 30 uM PIP2/10 uM ATP. The plate is sealed and incubated for 80 min at room temperature. Next, 25 ul ADP detection mix is added per well. The plate is sealed again and incubated for 60 min at room temperature, and then measure fluorescence polarization by Tecan Infinite F500 Reader.
(§4) Data is analyzed and IC50s are generated using the add-in software for Microsoft Excel, Xlfit™ (version 2.0). IH %=(ADP amount under 2% DMSO-ADP amount under test compound)/ADP amount under 2% DMSO.

[2] = target: p110γ (Homo sapiens, UniProt P48736); test: Transcreener KINASE Assay, kinase inhibition of p110γ; conditions: for PI3Kγ IH % @ 1 uM: 1 uM test compound; for IC50: read-out: PI3Kγ IC50
Experimental: Kinase Inhibition assays of p110α/p85α, p110β/p85α, p110δ/p85α and p110γ PI3K kinases including p110α/p85α, p110δ/p85α and p110γ are purchased from Invitrogen, and p110β/p85α is from Millipore. Primary screening data and IC50 values are measured using Transcreener™ KINASE Assay (Bellbrook, Catalog #3003-10K). […] It is a universal, homogenous, high throughput screening (HTS) technology using a far-red, competitive fluorescence polarization immunoassay based on the detection of ADP to monitor the activity of enzymes that catalyze group transfer reactions. Briefly, the Transcreener KINASE Assay is designed as a simple two-part, endpoint assay. […] The plate is sealed and incubated for 80 min at room temperature. Next, 25 ul ADP detection mix is added per well. The plate is sealed again and incubated for 60 min at room temperature, and then measure fluorescence polarization by Tecan Infinite F500 Reader. Data is analyzed and IC50s are generated using the add-in software for Microsoft Excel, Xlfit™ (version 2.0).

[3] = target: p110δ/p85α (Homo sapiens, UniProt O00329); test: Transcreener KINASE Assay, kinase inhibition of p110δ/p85α; conditions: for PI3Kδ IH % @ 1 uM: 1 uM test compound; for IC50: read-out: PI3Kδ IC50
Experimental: as §1, §2, §3, §4

p110β/p85α, sequence (P42338 whole entry): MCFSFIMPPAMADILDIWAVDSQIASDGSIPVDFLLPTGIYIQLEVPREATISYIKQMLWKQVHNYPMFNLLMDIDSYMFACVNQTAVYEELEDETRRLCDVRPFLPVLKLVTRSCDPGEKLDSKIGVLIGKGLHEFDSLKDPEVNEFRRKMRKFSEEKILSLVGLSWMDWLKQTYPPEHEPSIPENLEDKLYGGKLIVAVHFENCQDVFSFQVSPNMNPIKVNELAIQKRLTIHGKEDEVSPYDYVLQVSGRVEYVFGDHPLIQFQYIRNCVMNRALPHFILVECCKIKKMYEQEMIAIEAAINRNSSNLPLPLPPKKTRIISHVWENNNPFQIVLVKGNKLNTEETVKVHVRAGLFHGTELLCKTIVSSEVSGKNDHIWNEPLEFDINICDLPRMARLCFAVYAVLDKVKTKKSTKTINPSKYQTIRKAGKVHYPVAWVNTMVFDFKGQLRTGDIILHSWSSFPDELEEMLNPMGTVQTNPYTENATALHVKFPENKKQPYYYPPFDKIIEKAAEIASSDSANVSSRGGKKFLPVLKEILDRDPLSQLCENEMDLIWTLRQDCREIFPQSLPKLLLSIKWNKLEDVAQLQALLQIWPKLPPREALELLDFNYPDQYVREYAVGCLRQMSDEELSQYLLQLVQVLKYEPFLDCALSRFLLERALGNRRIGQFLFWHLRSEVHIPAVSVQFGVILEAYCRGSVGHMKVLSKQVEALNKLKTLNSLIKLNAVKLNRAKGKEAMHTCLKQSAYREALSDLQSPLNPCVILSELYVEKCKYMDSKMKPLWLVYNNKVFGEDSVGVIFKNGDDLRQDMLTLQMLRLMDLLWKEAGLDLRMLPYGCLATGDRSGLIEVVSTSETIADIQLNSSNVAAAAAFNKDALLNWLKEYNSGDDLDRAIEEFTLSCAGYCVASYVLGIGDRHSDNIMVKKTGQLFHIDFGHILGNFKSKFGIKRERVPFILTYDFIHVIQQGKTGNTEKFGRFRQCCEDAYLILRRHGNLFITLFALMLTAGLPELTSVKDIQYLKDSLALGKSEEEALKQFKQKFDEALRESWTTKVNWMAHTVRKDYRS
p110β/p85α, sequence (P27986 2-724 partner): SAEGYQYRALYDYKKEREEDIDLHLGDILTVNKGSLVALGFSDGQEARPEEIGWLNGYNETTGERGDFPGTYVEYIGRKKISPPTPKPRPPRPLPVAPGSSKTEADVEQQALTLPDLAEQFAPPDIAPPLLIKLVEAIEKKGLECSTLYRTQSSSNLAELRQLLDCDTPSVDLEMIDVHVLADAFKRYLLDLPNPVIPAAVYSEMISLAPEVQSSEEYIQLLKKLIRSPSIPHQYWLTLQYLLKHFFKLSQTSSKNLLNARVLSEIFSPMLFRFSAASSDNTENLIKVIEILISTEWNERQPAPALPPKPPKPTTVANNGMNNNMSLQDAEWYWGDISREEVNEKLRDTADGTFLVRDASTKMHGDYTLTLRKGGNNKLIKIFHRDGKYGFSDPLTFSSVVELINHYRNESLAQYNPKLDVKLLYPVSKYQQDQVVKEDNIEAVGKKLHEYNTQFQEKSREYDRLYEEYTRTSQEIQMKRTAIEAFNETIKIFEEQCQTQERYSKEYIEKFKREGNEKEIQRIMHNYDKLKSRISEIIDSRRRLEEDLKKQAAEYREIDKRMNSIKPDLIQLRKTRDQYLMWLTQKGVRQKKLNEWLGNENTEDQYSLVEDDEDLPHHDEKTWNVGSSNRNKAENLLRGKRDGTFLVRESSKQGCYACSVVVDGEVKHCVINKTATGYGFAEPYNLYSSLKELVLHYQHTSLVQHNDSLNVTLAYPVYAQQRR
p110δ/p85α, sequence (O00329 whole entry): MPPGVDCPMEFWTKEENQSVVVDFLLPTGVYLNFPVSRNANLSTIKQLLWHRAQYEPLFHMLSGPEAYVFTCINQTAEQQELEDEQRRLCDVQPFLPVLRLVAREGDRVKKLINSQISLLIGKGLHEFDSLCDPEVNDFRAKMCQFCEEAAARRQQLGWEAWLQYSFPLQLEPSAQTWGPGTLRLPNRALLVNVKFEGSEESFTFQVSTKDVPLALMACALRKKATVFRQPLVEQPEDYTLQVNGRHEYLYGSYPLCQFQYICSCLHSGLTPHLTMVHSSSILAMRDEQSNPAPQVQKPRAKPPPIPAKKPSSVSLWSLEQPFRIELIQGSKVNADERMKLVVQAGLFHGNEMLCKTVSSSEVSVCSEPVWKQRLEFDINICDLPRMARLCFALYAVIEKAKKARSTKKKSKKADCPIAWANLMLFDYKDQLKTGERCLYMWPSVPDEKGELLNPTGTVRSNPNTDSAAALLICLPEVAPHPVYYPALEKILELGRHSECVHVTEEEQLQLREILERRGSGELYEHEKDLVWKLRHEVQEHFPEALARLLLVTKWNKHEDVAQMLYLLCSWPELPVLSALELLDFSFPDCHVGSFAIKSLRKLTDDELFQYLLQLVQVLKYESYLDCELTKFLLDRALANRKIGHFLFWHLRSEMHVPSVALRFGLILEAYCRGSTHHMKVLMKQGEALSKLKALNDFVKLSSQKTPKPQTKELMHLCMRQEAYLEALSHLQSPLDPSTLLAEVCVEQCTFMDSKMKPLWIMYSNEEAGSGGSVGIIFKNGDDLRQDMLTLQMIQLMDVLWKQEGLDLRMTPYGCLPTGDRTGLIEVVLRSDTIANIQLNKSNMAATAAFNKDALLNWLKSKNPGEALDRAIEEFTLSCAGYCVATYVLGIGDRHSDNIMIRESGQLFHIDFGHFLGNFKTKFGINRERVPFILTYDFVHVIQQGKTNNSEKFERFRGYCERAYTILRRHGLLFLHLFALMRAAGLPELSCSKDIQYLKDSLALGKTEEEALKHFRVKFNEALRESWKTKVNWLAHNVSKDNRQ
p110δ/p85α, sequence (P27986 whole entry partner): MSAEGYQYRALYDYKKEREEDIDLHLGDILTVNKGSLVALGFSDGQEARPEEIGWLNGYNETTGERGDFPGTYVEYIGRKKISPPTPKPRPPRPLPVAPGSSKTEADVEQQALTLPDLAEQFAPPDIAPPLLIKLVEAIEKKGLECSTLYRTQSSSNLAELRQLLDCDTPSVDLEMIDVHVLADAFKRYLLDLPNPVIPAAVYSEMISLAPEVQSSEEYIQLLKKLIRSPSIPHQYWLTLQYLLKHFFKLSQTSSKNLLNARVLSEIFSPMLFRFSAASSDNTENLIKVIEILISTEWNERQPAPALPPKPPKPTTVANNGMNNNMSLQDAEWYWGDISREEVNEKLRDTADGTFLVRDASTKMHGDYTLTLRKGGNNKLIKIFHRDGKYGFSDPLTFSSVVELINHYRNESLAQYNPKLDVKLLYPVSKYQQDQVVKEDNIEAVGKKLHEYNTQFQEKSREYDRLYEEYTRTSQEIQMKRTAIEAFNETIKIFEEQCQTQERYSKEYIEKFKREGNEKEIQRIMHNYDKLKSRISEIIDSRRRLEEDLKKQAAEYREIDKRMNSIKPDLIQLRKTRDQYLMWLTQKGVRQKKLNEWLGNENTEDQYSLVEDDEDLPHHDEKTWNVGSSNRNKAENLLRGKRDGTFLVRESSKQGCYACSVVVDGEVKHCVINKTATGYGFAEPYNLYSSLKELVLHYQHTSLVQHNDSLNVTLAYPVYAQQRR
p110γ, sequence (P48736 whole entry): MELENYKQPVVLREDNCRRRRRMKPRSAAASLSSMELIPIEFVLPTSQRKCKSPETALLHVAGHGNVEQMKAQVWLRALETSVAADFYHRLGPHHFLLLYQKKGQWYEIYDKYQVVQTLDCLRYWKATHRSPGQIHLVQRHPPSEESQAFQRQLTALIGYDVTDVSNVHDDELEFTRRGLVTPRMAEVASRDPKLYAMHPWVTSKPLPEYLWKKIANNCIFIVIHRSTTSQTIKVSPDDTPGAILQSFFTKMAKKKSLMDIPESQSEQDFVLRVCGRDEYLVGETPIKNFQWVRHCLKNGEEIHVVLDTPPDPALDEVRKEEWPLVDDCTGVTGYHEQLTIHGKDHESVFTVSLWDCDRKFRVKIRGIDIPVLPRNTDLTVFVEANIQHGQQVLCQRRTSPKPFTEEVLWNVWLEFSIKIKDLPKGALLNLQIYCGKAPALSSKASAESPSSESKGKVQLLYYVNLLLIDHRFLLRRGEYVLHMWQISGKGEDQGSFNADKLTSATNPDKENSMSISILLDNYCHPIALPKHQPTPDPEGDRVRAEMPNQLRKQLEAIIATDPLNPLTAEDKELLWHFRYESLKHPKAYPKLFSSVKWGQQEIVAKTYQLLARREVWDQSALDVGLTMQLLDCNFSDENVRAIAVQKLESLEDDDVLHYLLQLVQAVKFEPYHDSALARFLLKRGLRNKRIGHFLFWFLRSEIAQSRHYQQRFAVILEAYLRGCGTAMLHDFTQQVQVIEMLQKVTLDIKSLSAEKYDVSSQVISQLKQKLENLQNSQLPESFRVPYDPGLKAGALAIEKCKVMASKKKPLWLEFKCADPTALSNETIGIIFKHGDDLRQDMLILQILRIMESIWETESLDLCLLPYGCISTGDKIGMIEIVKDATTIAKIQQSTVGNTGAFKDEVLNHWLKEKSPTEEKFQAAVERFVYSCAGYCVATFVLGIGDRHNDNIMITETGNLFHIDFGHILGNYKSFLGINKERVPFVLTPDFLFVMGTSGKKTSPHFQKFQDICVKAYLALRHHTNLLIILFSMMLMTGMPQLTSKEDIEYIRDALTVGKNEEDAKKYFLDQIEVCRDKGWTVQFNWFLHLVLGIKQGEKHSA

N#Cc1c[nH]c2ncnc(N3C[C@@H](O)C[C@H]3c3nn4ccc(Cl)c4c(=O)n3-c3ccccc3)c12 [Compound 71]
PI3Kβ IH % @ 1 uM [1]: >100% | IC50 [1]: 31 nM | PI3Kγ IH % @ 1 uM [2]: >100% | IC50 [2]: 9 nM | PI3Kδ IH % @ 1 uM [3]: >100% | IC50 [3]: 1 nM

CO[C@@H]1C[C@@H](c2nn3ccc(Cl)c3c(=O)n2-c2ccccc2)N(c2ncnc3[nH]cnc23)C1 [Compound 72, 5-chloro-2-((2S,4R)-4-methoxy-1-(9H-purin-6-yl)pyrrolidin-2-yl)-3-phenylpyrrolo[2,1-f][1,2,4]triazin-4(3H)-one]
PI3Kβ IH % @ 1 uM [1]: 13.5% | PI3Kγ IH % @ 1 uM [2]: 49.5% | PI3Kδ IH % @ 1 uM [3]: 91.6% | IC50 [3]: 88 nM

N#Cc1c[nH]c2ncnc(N3C[C@@H](F)C[C@H]3c3nn4ccc(Cl)c4c(=O)n3-c3ccccc3)c12 [Compound 74]
PI3Kβ IH % @ 1 uM [1]: >100% | IC50 [1]: 25 nM | PI3Kγ IH % @ 1 uM [2]: >100% | PI3Kδ IH % @ 1 uM [3]: >100% | IC50 [3]: 1 nM

CC(Nc1ncnc2[nH]cnc12)c1cn2ccc(Cl)c2c(=O)n1-c1cccc(F)c1 (stereo not shown) [Compound 75, 3-(1-(9H-purin-6-ylamino)ethyl)-8-chloro-2-(3-fluorophenyl)pyrrolo[1,2-a]pyrazin-1(2H)-one]
PI3Kβ IH % @ 1 uM [1]: 69.3% | IC50 [1]: 96 nM | PI3Kγ IH % @ 1 uM [2]: 97.3% | IC50 [2]: 8 nM | PI3Kδ IH % @ 1 uM [3]: 99.1% | IC50 [3]: 3 nM

CC(Nc1ncnc2[nH]cc(C#N)c12)c1cn2ccc(Cl)c2c(=O)n1-c1cccc(F)c1 (stereo not shown) [Compound 76]
PI3Kβ IH % @ 1 uM [1]: 82.0% | IC50 [1]: 104 nM | PI3Kγ IH % @ 1 uM [2]: 93.9% | PI3Kδ IH % @ 1 uM [3]: 98.8%

CC(Nc1ncnc2[nH]cnc12)c1cn2ccc(Cl)c2c(=O)n1-c1ccc(F)cc1 (stereo not shown) [Compound 78]
PI3Kβ IH % @ 1 uM [1]: 92.4% | PI3Kγ IH % @ 1 uM [2]: 91.2% | PI3Kδ IH % @ 1 uM [3]: 98.2%

CC(Nc1ncnc(N)c1C#N)c1cn2ccc(Cl)c2c(=O)n1-c1ccc(F)cc1 (stereo not shown) [Compound 79]
PI3Kβ IH % @ 1 uM [1]: 96.3% | PI3Kγ IH % @ 1 uM [2]: 91.6% | PI3Kδ IH % @ 1 uM [3]: 99.0%

CC(Nc1ncnc2[nH]cnc12)c1cn2ccc(Cl)c2c(=O)n1-c1cc(F)cc(F)c1 (stereo not shown) [Compound 80]
PI3Kβ IH % @ 1 uM [1]: 58.9% | PI3Kγ IH % @ 1 uM [2]: 83.5% | PI3Kδ IH % @ 1 uM [3]: >100%

CC(Nc1ncnc(N)c1C#N)c1cn2ccc(Cl)c2c(=O)n1-c1cc(F)cc(F)c1 (stereo not shown) [Compound 81]
PI3Kβ IH % @ 1 uM [1]: 79.0% | IC50 [1]: 217 nM | PI3Kγ IH % @ 1 uM [2]: 87.9% | PI3Kδ IH % @ 1 uM [3]: >100%

CC(Nc1ncnc2[nH]cc(C#N)c12)c1cn2cccc2c(=O)n1-c1ccccc1 (stereo not shown) [Compound 82]
PI3Kβ IH % @ 1 uM [1]: 56.4% | PI3Kγ IH % @ 1 uM [2]: 78.6% | IC50 [2]: 194 nM | PI3Kδ IH % @ 1 uM [3]: 98.7%

CC(Nc1ncnc2[nH]cnc12)c1cn2cccc2c(=O)n1-c1ccccc1 (stereo not shown) [Compound 83]
PI3Kβ IH % @ 1 uM [1]: 42.7% | PI3Kγ IH % @ 1 uM [2]: 78.6% | IC50 [2]: 309 nM | PI3Kδ IH % @ 1 uM [3]: 97.3%

CC(Nc1ncnc2[nH]cc(C#N)c12)c1cn2ccc(Cl)c2c(=O)n1-c1ccccc1 (stereo not shown) [Compound 88]
PI3Kβ IH % @ 1 uM [1]: 94.7% | IC50 [1]: 58 nM | PI3Kγ IH % @ 1 uM [2]: 98.0% | IC50 [2]: 14 nM | PI3Kδ IH % @ 1 uM [3]: 93.2%

CC(Nc1ncnc(N)c1C#N)c1cn2ccc(Cl)c2c(=O)n1-c1ccccc1 (stereo not shown) [Compound 89]
PI3Kβ IH % @ 1 uM [1]: 96.1% | IC50 [1]: 17 nM | PI3Kγ IH % @ 1 uM [2]: 94.8% | PI3Kδ IH % @ 1 uM [3]: >100%

Cc1ccn2cc(C(C)Nc3ncnc(N)c3C#N)n(-c3ccccc3)c(=O)c12 (stereo not shown) [Compound 90, 4-amino-6-(1-(8-methyl-1-oxo-2-phenyl-1,2-dihydropyrrolo[1,2-a]pyrazin-3-yl)ethylamino)pyrimidine-5-carbonitrile]
PI3Kβ IH % @ 1 uM [1]: 93.1% | IC50 [1]: 24 nM | PI3Kγ IH % @ 1 uM [2]: 95.7% | IC50 [2]: 34 nM | PI3Kδ IH % @ 1 uM [3]: >100%

CC(Nc1ncnc2[nH]cnc12)c1cn2ccc(-c3cnn(C)c3)c2c(=O)n1-c1ccccc1 (stereo not shown) [Compound 93, 3-(1-(9H-purin-6-ylamino)ethyl)-8-(1-methyl-1H-pyrazol-4-yl)-2-phenylpyrrolo[1,2-a]pyrazin-1(2H)-one]
PI3Kβ IH % @ 1 uM [1]: 5.4% | PI3Kγ IH % @ 1 uM [2]: 53.7% | PI3Kδ IH % @ 1 uM [3]: 77.6% | IC50 [3]: 244 nM
